Test system: NT2/D1-R1 control and DNMT3B knockdown cells
Assay: Genome-wide expression analysis with PAM clusters, control and DNMT3B knockdown cells (Tables 8-14)
Settings: sh-Ctrl + aza; NT2/D1-R1, decitabine 10 nM 3 days

## Nc1ncn([C@H]2C[C@H](O)[C@@H](CO)O2)c(=O)n1 [aza]
  ACSS2 (NM_0010765) gene expression, Mean: 354.703
  ADCK1 (NM_020421) gene expression, Mean: 203.584
  ADCY1 (NM_021116) gene expression, Mean: 106.028
  AGAP1 (NM_014914) gene expression, Mean: 188.156
  AK056312 gene expression, Mean: 293.846
  ANKRD9 (NM_152326) gene expression, Mean: 614.423
  APEH (NM_001640) gene expression, Mean: 720.135
  APP (NM_201414) gene expression, Mean: 326.901
  C1orf115 (NM_024709) gene expression, Mean: 213.203
  C2orf34 (NM_024766) gene expression, Mean: 205.5
  C7orf47 (NM_145030) gene expression, Mean: 466.635
  C16orf35 (NM_0010394) gene expression, Mean: 630.186
  CA4 (NM_000717) gene expression, Mean: 1449.98
  CACNA2D2 (NM_006030) gene expression, Mean: 304.761
  CD24 (NM_013230) gene expression, Mean: 1797.88
  CD248 (NM_020404) gene expression, Mean: 178.853
  CDC42EP5 (NM_145057) gene expression, Mean: 219.473
  CDH3 (NM_001793) gene expression, Mean: 651.295
  CEBPB (NM_005194) gene expression, Mean: 1388.19
  CHST13 (NM_152889) gene expression, Mean: 151.937
  CLASP1 (NM_015282) gene expression, Mean: 301.334
  CLIP2 (NM_032421) gene expression, Mean: 175.136
  COMMD1 (NM_152516) gene expression, Mean: 235.362
  COMMD7 (NM_0010993) gene expression, Mean: 915.427
  CRMP1 (NM_0010148) gene expression, Mean: 328.665
  CTNNBIP1 (NM_020248) gene expression, Mean: 144.946
  CXCL16 (NM_022059) gene expression, Mean: 279.669
  CYP2F1 (NM_000774) gene expression, Mean: 126.222
  CYP2S1 (NM_030622) gene expression, Mean: 604.679
  DBC1 (NM_014618) gene expression, Mean: 197.271
  DDIT4 (NM_019058) gene expression, Mean: 522.11
  DGKQ (NM_001347) gene expression, Mean: 247.199
  DLL3 (NM_016941) gene expression, Mean: 120.925
  DPYSL3 (NM_001387) gene expression, Mean: 602.964
  DYM (NM_017653) gene expression, Mean: 217.362
  DYSF (NM_003494) gene expression, Mean: 188.291
  EEF2K (NM_013302) gene expression, Mean: 243.652
  EPHA1 (NM_005232) gene expression, Mean: 497.427
  EVI5L (NM_145245) gene expression, Mean: 247.813
  EVL (NM_016337) gene expression, Mean: 537.424
  EXTL3 (NM_001440) gene expression, Mean: 695.163
  F11R (NM_016946) gene expression, Mean: 182.523
  FAF1 (NM_007051) gene expression, Mean: 209.978
  FAM125A (NM_138401) gene expression, Mean: 564.523
  FAM127A (NM_0010781) gene expression, Mean: 867.222
  FCGBP (NM_003890) gene expression, Mean: 247.577
  FDFT1 (NM_004462) gene expression, Mean: 417.59
  FIGNL2 (NM_0010136) gene expression, Mean: 231.29
  FLNB (NM_001457) gene expression, Mean: 679.266
  FOXN3 (NM_005197) gene expression, Mean: 274.017
  GAL (NM_015973) gene expression, Mean: 1375.17
  GAS7 (NM_201433) gene expression, Mean: 225.598
  GLG1 (NM_012201) gene expression, Mean: 958.607
  GRAMD1A (NM_020895) gene expression, Mean: 767.701
  GTF3C1 (NM_001520) gene expression, Mean: 387.976
  HCFC1R1 (NM_0010020) gene expression, Mean: 427.673
  HESX1 (NM_003865) gene expression, Mean: 204.885
  HINT2 (NM_032593) gene expression, Mean: 537.794
  HIST3H2A (NM_033445) gene expression, Mean: 314.077
  HIST4H4 (NM_003541) gene expression, Mean: 218.72
  HK1 (NM_033500) gene expression, Mean: 3617.1
  IDH1 (NM_005896) gene expression, Mean: 668.525
  IL21R (NM_181078) gene expression, Mean: 154.278
  JPH3 (NM_020655) gene expression, Mean: 167.797
  KIF1A (NM_004321) gene expression, Mean: 160.071
  KIF1B (NM_015074) gene expression, Mean: 252.94
  LDB2 (NM_001290) gene expression, Mean: 202.228
  LDOC1 (NM_012317) gene expression, Mean: 502.418
  LHFPL4 (NM_198560) gene expression, Mean: 215.926
  LONP1 (NM_004793) gene expression, Mean: 779.763
  LPCAT3 (NM_005768) gene expression, Mean: 477.318
  LRBA (NM_006726) gene expression, Mean: 170.16
  LRRC33 (NM_198565) gene expression, Mean: 145.858
  MAPK3 (NM_0010400) gene expression, Mean: 277.581
  MAPKAP1 (NM_0010066) gene expression, Mean: 182.648
  MED30 (NM_080651) gene expression, Mean: 647.26
  MID1IP1 (NM_021242) gene expression, Mean: 649.056
  MKRN1 (NM_013446) gene expression, Mean: 2856.3
  MSRB2 (NM_012228) gene expression, Mean: 934.409
  MYO5C (NM_018728) gene expression, Mean: 151.991
  NANOG (NM_024865) gene expression, Mean: 706.99

Reference: patent publication US9476099B2 (TRUSTEES OF DARTMOUTH COLLEGE, priority 2012, dated 2016)
